Assay results: US5801183A, “Aza and aza (N-oxy) analogs of glycine/NMDA receptor antagonists” (priority 1995, dated 1998)
pIC50, pKd, pKi: −log10 of the molar value.

How the values were obtained:
mice = experiment: maximum electroshock-induced seizure (MES) assay in mice; assay type: in vivo, male Swiss/Webster mice; settings: Mus musculus, iv, drug applied i.v. as an aqueous basic solution, read-out: ED50 as an anticonvulsant in a MES experiment in mice
Excerpt: The anticonvulsant activity of the glycine antagonists may be assessed in the maximum electroshock-induced seizure (MES) assay in mice. Electroshock was applied to male Swiss/Webster mice (20-30 g, Simonsen) through corneal electrodes (Swinyard, E. A., in Anticonvulsant Drugs, Mercier, J., ed., Pergamon Press, Oxford (1973), pp. 47-65). The seizure stimulus parameters were: 50 mA, 60 Hz, rectangular pulse, width 0.8 msec, duration 200 msec. Tonic hind limb extension observed after application of the electrical stimulus was recorded as occurrence of seizure. The drug was applied i.v. as an aqueous basic solution.

[1] = target: T1, NMDA receptor glycine site (Rattus norvegicus, UniProt P35439); experiment: inhibition of [3H]DCKA binding to rat brain membranes
T1 construct: from tissue; host or cells: rat brain membranes
Method: (§1) The affinity of the compounds for the NMDA receptor glycine site also was measured by inhibition of [^3 H]DCKA binding to rat brain membranes. See, Canton, T. et al., J. Pharm. Pharmacol. 44:812-816 (1992).

[2] = tested on: glycine binding site of the NMDA receptor; settings: cited from earlier work
[3] = in vivo; cited from earlier work
glycine/NMDA receptor = target: T2, glycine/NMDA receptor (Rattus norvegicus, UniProt P35439); experiment: affinity at the glycine/NMDA receptor; assay type: binding
T2 construct: rat brain membrane homogenates that are enriched in NMDA receptors; tissue Pel-Freez, Rogers, Ark; host or cells: frozen rat brain, membrane homogenate
Method: as §1
The glycine antagonist potency in vitro may be determined using a 1 μM glycine-stimulated [^3 H]-MK801 binding assay. This assay takes advantage of the fact that the binding of [^3 H]-MK801 to the PCP receptor inside the pore of the NMDA channel is dependent on the presence of both glutamate and glycine. […]
The assay is conducted using rat brain membrane homogenates that are enriched in NMDA receptors. […] The final pellet is suspended in three volumes of 50 mM HEPES, pH 7.4 and the protein concentration is determined with a standard dye-binding protein assay (Bio-Rad, Richmond, Calif.). […]
On the day of the assay, the previously prepared membranes are thawed and 5 mM Tris/HCl buffer, pH 7.4, is added to yield a final protein concentration of 0.156 mg/mL. […] To determine the effect of 1 μM glycine on the binding of [^3 H]-MK801, bound radioactivity in the presence of 10 μM glutamate alone (final concentration) is subtracted from the bound radioactivity in the presence of both 10 μM glutamate and 1 μM glycine (final concentration). […]

PCP receptor = settings: Wong et al., PNAS 83:7104-7108 (1986); cited from earlier work
rodents = rodents / animal models; cited from earlier work
pigeons = settings: cited from earlier work
log P (literature) = assay type: physicochemical; settings: from benzene to the named substance

| SMILES | binding affinity for the glycine site (in words) [2] | blood/brain barrier penetration [3] | also measured |
| --- | --- | --- | --- |
| N#Cc1c(=O)[nH]c2cc(Cl)c(Cl)cc2[n+]1[O-] [3-Cyano-6,7-dichloro-1,2-dihydroquinoxaline-2-one-4-oxide] | – | – | ED50 (mice): 5 mg/kg; pIC50 [1]: 6.87 |
| O=c1[nH]c2ccccc2c(O)c1[N+](=O)[O-] [4-hydroxy-3-nitro-1,2-dihydroquinolin-2-one] | high binding to the glycine receptor | – | – |
| O=C(O)c1cc(O)c2c(Cl)cc(Cl)cc2n1 [5,7-dichlorokynurenic acid] | relatively high receptor binding affinity in vitro | cannot penetrate the blood/brain barrier | – |
| Oc1nc2cc(Cl)cnc2c(O)c1-c1cccc(Oc2ccccc2)c1 [5-Aza-7-chloro-4-hydroxy-3-(m-phenoxyphenyl)quinolin-2-one] | – | – | pKi (glycine/NMDA receptor): 8.30; ED50 (mice): 3 mg/kg |
| O=C(O)c1cc(O)c2ccc(Cl)cc2n1 [7-Cl-kynurenic acid] | relatively high receptor binding affinity in vitro | cannot penetrate the blood/brain barrier | – |
| NC1CCN(O)C1=O (stereo not drawn) [HA-966] | partial agonist with micromolar affinity for the glycine binding site | sufficiently penetrates the blood/brain barrier | – |
| C[C@]12N[C@H](Cc3ccccc31)c1ccccc12 [MK-801] | – | – | pKd (PCP receptor): ~8.52 |
| c1ccc(C2(N3CCCCC3)CCCCC2)cc1 [PCP, phencyclidine] | – | – | PCP-like behavioral effects (rodents): behavioral excitation (hyperlocomotion) in rodents; katalepsy in pigeons (pigeons): characteristic katalepsy in pigeons |
| NCC(=O)O [glycine] | – | – | pKd ([2]; used in Cheng and Prusoff equation, read-out: known affinity for the glycine binding site of the NMDA receptor): 7.00 |
| O=C(O)c1cc2ccccc2[nH]1 [indole-2-carboxylic acid] | relatively high receptor binding affinity in vitro | cannot penetrate the blood/brain barrier | – |
| [O-][n+]1ccccc1 [pyridine N-oxide] | – | – | difference in log P from benzene (log P (literature)): -3.84 |
